Measurements: patent US20040157845A1, “Vanilloid receptor ligands and their use in treatments” (Amgen Inc., priority 2003, published 2004)
Where a name gives a salt, the structure may show the parent alone.

melting point | SMILES
194.9 to 196.6 °C | O=C(Nc1ccc(Br)cc1)c1csc(Nc2c(Cl)cncc2Cl)n1 [Example 53]
98.8 to 106.9 °C | CC(=O)c1ccc(NC(=O)c2csc(Cc3c(Cl)cccc3Cl)n2)cc1 [Example 22]
186 to 187 °C | O=C(Nc1ccc(C(F)(F)F)cc1)c1csc(Nc2ncccc2Cl)n1 [Example 75]
182 to 184 °C | O=C(Nc1ccc(C(F)(F)F)cc1)c1coc(Cc2c(Cl)cccc2Cl)n1 [Example 19, {2-[(2,6-Dichlorophenyl)methyl](1,3-oxazol-4-yl)}-N-[4-(trifluoromethyl)-phenyl]carboxamide]
267 to 268 °C | Clc1cccc(Cl)c1Nc1nc(-c2nc3cc(Br)ccc3[nH]2)cs1 [Example 74]
111.8 to 112.5 °C | O=C(Nc1ccc(Br)cc1)c1csc(Cc2c(F)cccc2Cl)n1 [Example 34]
107.2 to 108.2 °C | COc1ccccc1Cc1nc(C(=O)Nc2ccc(C(F)(F)F)cc2)cs1 [Example 38]
128 to 133 °C | Cc1cccc(C)c1Nc1nc(C(=O)Nc2ccc(C(C)C)cc2)cs1 [Example 64]
139 to 141 °C | CC(C)(C)c1ccc(NC(=O)c2csc(Cc3c(Cl)cccc3Cl)n2)cc1 [Example 49]
281 to 282 °C | FC(F)(F)c1ccc2nc(-c3c[nH]c(Cc4c(Cl)cccc4Cl)n3)[nH]c2c1 [Example 20, 2-{2-[(2,6-Dichlorophenyl)methyl]imidazol-4-yl}-6-(trifluoromethyl)-benzimidazole]
121.9 to 123.4 °C | Cc1ccccc1Cc1nc(C(=O)Nc2ccc(Br)cc2)cs1 [Example 37]
85.5 to 94 °C | O=C(Nc1ccc(C(F)(F)F)cc1)c1csc(Cc2ccccc2Cl)n1 [Example 26]
197 to 197.8 °C | O=C(Nc1ccc(C(O)(C(F)(F)F)C(F)(F)F)cc1)c1csc(Cc2c(Cl)cccc2Cl)n1 [Example 43]
151 to 162 °C | O=C(Nc1ccc(C(F)(F)F)cc1)c1nc(Nc2c(Cl)cccc2Cl)sc1Br [Example 14, {2-[(2,6-Dichlorophenyl)amino]-5-bromo(1,3-thiazol-4-yl)}-N-[4-(trifluoromethyl)phenyl]carboxamide]
250 to 251 °C | Cc1cccc(C)c1Nc1nc(-c2nc3cc(C(F)(F)F)ccc3[nH]2)cs1 [Example 4, (2,6-Dimethylphenyl){4-[5-(trifluoromethyl)benzimidazol-2-yl](1,3-thiazol-2-yl)}amine]
123.4 to 125.1 °C | O=C(Nc1ccc(C(F)(F)F)nc1)c1csc(Cc2c(F)cccc2Cl)n1 [Example 35]
243 to 244 °C | O=C(Nc1ccc(C(F)(F)F)cc1)c1csc(Nc2c(Cl)cccc2C(F)(F)F)n1 [Example 71]
214.7 to 216.2 °C | O=C(Nc1ccc(Br)cc1)c1csc(Nc2cccnc2Cl)n1 [Example 52]
125.9 to 126.9 °C | O=C(Nc1ccc(Br)cc1)c1csc(Nc2c(Cl)cccc2Cl)n1 [Example 56]
195 to 197 °C | O=C(Nc1ccc(C(F)(F)F)cc1)c1csc(Nc2c(Cl)cncc2Cl)n1 [Example 2, {2-[(3,5-Dichloro(4-pyridyl))amino](1,3-thiazol-4-yl)}-N-[4-(trifluoromethyl)-phenyl]carboxamide]

melting point | SMILES
216 to 218 °C | Cc1cccc(C)c1Nc1nc(C(=O)Nc2ccc(C(F)(F)F)cc2)cs1 [Example 3, {2-[(2,6-Dimethylphenyl)amino](1,3-thiazol-4-yl) }-N-[4-(trifluoromethyl)-phenyl]carboxamide]
109.4 to 110.6 °C | O=C(Nc1ccc(Br)cc1)c1csc(Cc2ccccc2Cl)n1 [Example 33]
99 to 101 °C | O=C(Nc1ccc(C(F)(F)F)nc1)c1csc(Cc2ccccc2Cl)n1 [Example 1, {2-[(2-Chlorophenyl)methyl](1,3-thiazol-4-yl)}-N-[6-(trifluoromethyl)(3-pyridyl)]carboxamide]
136.5 to 180.1 °C | CC(C)c1ccc(NC(=O)c2csc(Nc3ccccc3F)n2)cc1 [Example 58]
140.2 to 141.3 °C | Cc1ccccc1Cc1nc(C(=O)Nc2ccc(C(F)(F)F)nc2)cs1 [Example 39]
242 to 243 °C | FC(F)(F)c1ccc2nc(-c3csc(Nc4c(Cl)cccc4Cl)n3)[nH]c2c1 [Example 15, (2,6-Dichloro-phenyl)-[4-(6-trifluoromethyl-1H-benzoimidazol-2-yl)-thiazol-2-yl]-amine]
113 to 116 °C | O=C(Nc1ccc(F)c(F)c1)c1csc(Cc2c(Cl)cccc2Cl)n1 [Example 17, {2-[(2,6-Dichlorophenyl)methyl](1,3-thiazol-4-yl)}-N-(3,4-difluorophenyl)-carboxamide]
253 to 255 °C | O=C(Nc1ccc(C(F)(F)F)cc1)c1cnc(Cc2c(Cl)cccc2Cl)[nH]1 [Example 11, {2-[(2,6-Dichlorophenyl)methyl]imidazol-5-yl}-N-[4-(trifluoromethyl)-phenyl]carboxamide]
137.7 to 138.8 °C | COc1ccc(NC(=O)c2csc(Cc3c(Cl)cccc3Cl)n2)cn1 [Example 23]
126.6 to 132 °C | O=C(Nc1ccc(Br)cc1)c1csc(Cc2c(Cl)cccc2Cl)n1 [Example 40]
139.1 to 147.1 °C | O=C(Nc1ccc(C(F)(F)F)nc1)c1csc(Cc2c(Cl)cccc2Cl)n1 [Example 24]
188 to 210 °C | FC(F)(F)c1ccc2[nH]c(-c3csc(Nc4c(Cl)cccc4C(F)(F)F)n3)nc2c1 [Example 73]
198.4 to 199.7 °C | O=C(Nc1ccc(Br)cc1)c1csc(Nc2ccccc2F)n1 [Example 55]
207 to 208 °C | FC(F)(F)c1ccc2[nH]c(-c3csc(Nc4ncccc4Cl)n3)nc2c1 [Example 6, (3-Chloro(2-pyridyl)){4-[5-(trifluoromethyl)benzimidazol-2-yl](1,3-thiazol-2-yl)}amine]
100.8 to 101 °C | O=C(Nc1ccc(Br)cc1)c1csc(Cc2ccccc2F)n1 [Example 32]
211 to 212 °C | FC(F)(F)c1ccc2[nH]c(-c3csc(Nc4ccccc4C(F)(F)F)n3)nc2c1 [Example 72]
192.5 to 193.1 °C | O=C(Nc1ccc(C(F)(F)F)cc1)c1csc(Nc2ccccc2Cl)n1 [Example 61]
210 to 212 °C | CC(C)c1ccc(NC(=O)c2cnc(Cc3c(Cl)cccc3Cl)[nH]2)cc1 (as salt: hydrochloride) [Example 12, {2-[(2,6-Dichlorophenyl)methyl]imidazol-5-yl}-N-[4-(methylethyl)phenyl]-carboxamide]
199 to 200 °C | O=C(Nc1ccc(C(F)(F)F)cc1)c1csc(Nc2c(Cl)cccc2Cl)n1 [Example 63, {2-[(2,6-dichlorophenyl)amino](1,3-thiazol-4-yl)}-N-[4-(trifluoromethyl)phenyl]-carboxamide]
245 to 247 °C | Clc1cc2nc(-c3csc(Cc4c(Cl)cccc4Cl)n3)[nH]c2cc1Cl [Example 18, 4-(5,6-Dichlorobenzimidazol-2-yl)-2-[(2,6-dichlorophenyl)methyl]-1,3-thiazole]

melting point | SMILES
253 to 254 °C | O=C(Nc1ccc(Br)cc1)c1cnc(Cc2c(Cl)cccc2Cl)[nH]1 (as salt: hydrochloride) [Example 13, {2-[(2,6-Dichlorophenyl)methyl]imidazol-5-yl}-N-(4-bromophenyl)carboxamide]
85.4 to 92.7 °C | CC(C)c1ccc(NC(=O)c2csc(Cc3ccccc3Cl)n2)cc1 [Example 25]
232.5 to 234.3 °C | O=C(Nc1ccc(C(F)(F)F)cc1)c1csc(Nc2cccnc2Cl)n1 [Example 51]
151 to 153 °C | O=C(Nc1ccc(Br)cc1)c1csc(Nc2ccccc2C(F)(F)F)n1 [Example 68]
226 to 258 °C | O=C(Nc1ccc(Br)cc1)c1csc(Nc2ncccc2Cl)n1 [Example 76]
96 to 100 °C | CC(C)c1ccc(NC(=O)c2csc(Nc3ccccc3C(F)(F)F)n2)cc1 [Example 67]
128 to 130 °C | O=C(Nc1ccc(C(F)(F)F)cc1)c1csc(Nc2ccccc2C(F)(F)F)n1 [Example 66]
201 to 202 °C | FC(F)(F)c1ccc2nc(-c3coc(Cc4c(Cl)cccc4Cl)n3)[nH]c2c1 [Example 21, 2-[(2,6-Dichlorophenyl)methyl]-4-[6-(trifluoromethyl)benzimidazol-2-yl]-1,3-oxazole]
169 to 175 °C | CC(C)c1ccc(NC(=O)c2cnc(Cc3c(Cl)cccc3Cl)s2)cc1 [Example 9, {2-[(2,6-Dichlorophenyl)methyl](1,3-thiazol-5-yl)}-N-[4-(methylethyl)phenyl]-carboxamide]
138 to 138.4 °C | COc1ccccc1Cc1nc(C(=O)Nc2ccc(Br)cc2)cs1 [Example 36]
187 to 189 °C | FC(F)(F)c1ccc2nc(-c3csc(Cc4c(Cl)cccc4Cl)n3)[nH]c2c1 [Example 8, 2-[(2,6-Dichlorophenyl)methyl]-4-[6-(trifluoromethyl)benzimidazol-2-yl]-1,3-thiazole]
104.8 to 107.7 °C | O=C(Nc1ccc(C(F)(F)F)nc1)c1csc(Cc2ccccc2F)n1 [Example 31]
220.5 to 221.3 °C | O=C(Nc1ccc(Br)cc1)c1csc(Nc2ccccc2Cl)n1 [Example 60]
208 to 209 °C | Cc1cccc(C)c1Nc1nc(C(=O)Nc2ccc(Br)cc2)cs1 [Example 65]
180 to 183 °C | Cc1nc(Cc2c(Cl)cccc2Cl)sc1C(=O)Nc1ccc(C(F)(F)F)cc1 [Example 7, {2-[(2,6-Dichlorophenyl)methyl]-4-methyl(1,3-thiazol-5-yl)}-N-[4-(trifluoromethyl)phenyl]carboxamide]
158 to 160 °C | O=C(Nc1ccc(C(O)(C(F)(F)F)C(F)(F)F)cc1)c1csc(Nc2ccccc2F)n1 [Example 54]
172 to 174 °C | CN(C)c1ccc(NC(=O)c2csc(Cc3c(Cl)cccc3Cl)n2)cc1 [Example 50]
164 to 165 °C | O=C(Nc1ccc(Br)cc1)c1coc(Cc2c(Cl)cccc2Cl)n1 [Example 78]
163 to 164 °C | O=C(Nc1ccc(C(F)(F)F)cc1)c1cnc(Cc2c(Cl)cccc2Cl)s1 [Example 10, {2-[(2,6-Dichlorophenyl)methyl](1,3-thiazol-5-yl)}-N-[4-(trifluoromethyl)-phenyl]carboxamide]
